Experiments:
[1] = Liquid; for mass density: 298.15 K, 101.33 kPa, Vibrating tube method; for vapor or sublimation pressure: Ebulliometric method (Recirculating still)
[2] = refractive index (Na D-line) (dimensionless); settings: 298.15 K; 101.33 kPa; Liquid; Standard Abbe refractometry

CCC(O)CO (centres undefined) [1,2-butanediol]
Settings | mass density [kg/m3] | refractive index
[1] | 998.78 | –
[2] | – | 1.4378

[1]
Settings | vapor or sublimation pressure [kPa]
392.06 K | 5.62
397.24 K | 7.21
402.31 K | 8.86
405.41 K | 10
406.54 K | 10.62
412.23 K | 13.56
417.66 K | 16.89
422.15 K | 20
422.48 K | 20.34
427.21 K | 24.45
432.29 K | 29.56
437.41 K | 35.54
440.83 K | 40
442.77 K | 41.92
447.52 K | 50.54
452.13 K | 58.86
457.24 K | 69.36
462.57 K | 81.92
466.64 K | 92.78
469.71 K | 101.3

CC(O)CO (centres undefined) [1,2-propanediol]
Settings | mass density [kg/m3] | refractive index
[1] | 1031.9 | –
[2] | – | 1.432

[1]
Settings | vapor or sublimation pressure [kPa]
398.25 K | 10
398.26 K | 10
414.88 K | 20
433.22 K | 40
460.69 K | 101.3

OCCO [1,2-ethanediol]
[1]
Settings | vapor or sublimation pressure [kPa]
406.1 K | 10
423.29 K | 20
442.17 K | 40
470.4 K | 101.3

Settings | refractive index
[2] | 1.431

From the NIST ThermoML archive (doi:10.1021/je5010824)
